Source: article PMC6318026 (Molecular cancer therapeutics, 2018)

Molecular target: dihydroorotate dehydrogenase (DHODH) (Homo sapiens, UniProt Q02127)
Assay: recombinant DHODH enzyme assay
Format: biochemical

Chain of dihydroorotate dehydrogenase (DHODH) (Q02127 whole entry): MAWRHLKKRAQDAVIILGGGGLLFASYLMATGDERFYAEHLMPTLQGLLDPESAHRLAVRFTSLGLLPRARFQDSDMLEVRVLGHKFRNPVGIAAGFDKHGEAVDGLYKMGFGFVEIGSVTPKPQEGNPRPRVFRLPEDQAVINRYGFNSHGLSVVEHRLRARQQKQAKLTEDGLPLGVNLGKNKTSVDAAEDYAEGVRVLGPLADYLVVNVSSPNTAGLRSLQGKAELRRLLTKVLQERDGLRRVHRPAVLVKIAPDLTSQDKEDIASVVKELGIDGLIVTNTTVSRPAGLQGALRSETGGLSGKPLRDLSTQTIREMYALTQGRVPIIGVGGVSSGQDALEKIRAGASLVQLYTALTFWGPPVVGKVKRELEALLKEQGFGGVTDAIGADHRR

Compound: C/C(O)=C(\C#N)C(=O)Nc1ccc(C(F)(F)F)cc1 [teriflunomide]
- recombinant DHODH enzyme assay; isolated mitochondria assay: inhibited the activity of recombinant DHODH using in vitro enzyme assays, though not as potently as do brequinar or teriflunomide
